Like-named read-outs stand apart in the source and are kept apart here.
Legend:
A. baumannii ATCC 15151 [1] = assay: microbe, parasite or virus in culture; assay type: cell-based; details: for MIC: Acinetobacter baumannii; for Evolution of resistance?: Table 7
Description: A. baumannii ATCC 15151 was grown from a glycerol stock by placing a small volume of cells onto a MHA plate. The MHA plate was incubated overnight at 37° C. A single colony was subsequently used to inoculate MHB to obtain a bacterial broth suspension. The MHB broth suspension was grown at 37° C. on a rotary shaking incubator (100 rpm) for 12 hours. The bacterial cell concentration was adjusted to ˜5×10^5 CFU/mL in MHB or MHB using OD at 595 nm. […] (PAO) and the negative control was non-treated cells. All treatments were performed in triplicate. The plate was incubated for 20 hours at 37° C. in a Tecan plate reader, where the cells were shaken every hour and an OD reading was taken at 600 nm. […] These cells were again plated in a 96-well plate and incubated as before. This was performed a total of 30 days.

MRSA ATCC BAA-44 = assay: MIC on MRSA ATCC BAA-44; assay type: cell-based, S. aureus; details: Staphylococcus aureus
Procedure, shortened: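 Inoculum ~5×10^5 CFU/mL in Mueller-Hinton broth with 0, 10, 20 or 40% FBS; compound two-fold serially diluted from 100 μM. Incubated 18 h at 37° C, read visually or by MTT colorimetric reaction after 10 min.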

[2] = tested on: A. baumannii ATCC BAA-1797; assay: Colony counts of A. baumannii ATCC BAA-1797 treated with 4xMIC for 16 hours; assay type: cell-based; details: for kill of A. baumannii ATCC BAA-1797: 4xMIC (24 μM Compound 25, 24 μM Compound 26, 100 μM Compound 27, 48 μM Compound 14, 100 μM Compound 15)
A. baumannii = assay: Synergy with PME (Table 7); assay type: cell-based
A. baumannii ATCC 15151 [3] = assay: MIC on A. baumannii ATCC 15151; assay type: cell-based; details: Acinetobacter baumannii, ATCC15151; A. baumannii ATCC 15151 (heading of Example 9)
[4] = tested on: drug-resistant A. baumannii strains obtained from the CDC and Prevention Antimicrobial Isolate Bank; assay: MIC on drug-resistant A. baumannii strains from the CDC Antimicrobial Isolate Bank; assay type: cell-based; details: Acinetobacter baumannii
HeLa cells [5] = assay: HeLa cell toxicity IC50 (MTT); assay type: cell-based; details: Homo sapiens, 10% FBS
Description: HeLa cells: HeLa cells were trypsinized and counted in number of cells/mL using a hemocytometer. Cells were then plated at 4×10^3 HeLa cells/100 μL in tissue culture-treated 96-well plates in DMEM+1% penicillin/streptomycin (P/S)+10% FBS. HeLa cells were treated with 100 μM of a compound of interest and serially diluted two-fold. Samples were also prepared with no treatment, 1% DMSO, and 100 μM PAO. The cells were incubated for 48 hours at 37° C. in a humidified incubator with 5% CO2. 10% v/v MTT reagent (5 mg/mL stock) was added to each sample, and the samples were incubated for 2 hours before removing the supernatant and solubilizing the samples in 100 μL DMSO. OD readings were obtained at 595 nm. IC50 values were reported.

HeLa cells [6] = assay: HeLa cell toxicity IC50 (MTT); assay type: cell-based; details: Homo sapiens
A. baumannii ATCC 1515 = assay: Membrane depolarization detected by DiOC2(3); assay type: cell-based; details: 1xMIC; for cell membrane depolarization: 20 μM CCCP, 25 minutes
[7] = tested on: A. baumannii ATCC BAA-1797; assay: MIC on A. baumannii ATCC BAA-1797; assay type: cell-based; details: Acinetobacter baumannii
Procedure, shortened: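 Cells adjusted to ~5×10^5 CFU/mL in MHB or MHB with 10%, 20% or 40% FBS, treated with two-fold serial compound dilutions in glass tubes and incubated 18 hours at 37° C. Growth read visually or by MTT (10% v/v, 10 min) with OD at 595 nm.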

A. baumannii ATCC 15151 [8] = assay: ATP decrease (luciferase); assay type: cell-based; details: 1xMIC and 2xMIC; 25 minutes
[9] = ATCC15151, 0 h, read-out: Starting MIC Day 0, A. baumannii ATCC 15151, Day 0
[10] = ATCC15151, read-out: Final MIC Day 30, A. baumannii ATCC 15151, Day 30
[11] = MRSA ATCC BAA-44, serum not stated, read-out: MIC
[12] = no serum (note in the cell), read-out: MIC (μM) in MRSA BAA-44
[13] = 18 h, A. baumannii CDC AR033, 18 hours, read-out: MIC values for AR033
[14] = 18 h, A. baumannii CDC AR083, 18 hours, read-out: MIC values for AR083
[15] = HeLa, Table 7, read-out: IC50 on HeLa in 10% FBS
[16] = HeLa cells, read-out: IC50 10% FBS
[17] = HeLa, read-out: IC50 on HeLa in 40% FBS, Table 7
[18] = read-out: IC50 40% FBS, HeLa cells
[19] = ATCC 1797 / ATCC BAA-1797, 0% FBS, read-out: MIC (μM) in MDR A. baumannii ATCC 1797 0% FBS
[20] = ATCC 1797 / ATCC BAA-1797, 10% FBS, read-out: MIC (μM) in MDR A. baumannii ATCC 1797 10% FBS
[21] = ATCC 1797 / ATCC BAA-1797, read-out: MIC (μM) in MDR A. baumannii ATCC 1797 40% FBS, 40% FBS
[22] = ATCCBAA1797, 18 h, read-out: MIC in the presence of 40% FBS, A. baumannii ATCC BAA-1797, 40% FBS
[23] = ATCCBAA1797, A. baumannii ATCC BAA-1797, absence of serum, read-out: MIC in the absence of serum
[24] = ATCCBAA1797, Table 7, 10% FBS, read-out: MIC in 10% FBS
[25] = ATCCBAA1797, Table 7, no serum stated, read-out: MIC
[26] = ATCCBAA1797, read-out: MIC in 40% FBS (μM), Table 7, 40% FBS

Q: `Brc1ccc(N/N=C/c2c[nH]c3cccc(OCc4ccccc4)c23)cc1.Cl` [Compound 25, (E)-2-((4-(benzyloxy)-1H-indol-3-yl)methylene)-1-(4-bromophenyl)hydrazin-1-ium chloride] was tested. Which development of resistance (A. baumannii ATCC 15151 [1]; 30 days) did it give?
A: Its development of resistance is “had not developed resistance”.

Q: What about the MIC (A. baumannii ATCC 15151 [1]; [9]) of the same compound?
A: Its MIC is 6 µM.

Q: What about the MIC (A. baumannii ATCC 15151 [1]; [10]) of the same compound?
A: Its MIC is 6 µM.

Q: What about the “Evolution of resistance?” value (A. baumannii ATCC 15151 [1]) of the same compound?
A: The value was “No”.

Q: What about the MIC (MRSA ATCC BAA-44; [11]) of the same compound?
A: Its MIC is 25 µM.

Q: And the MIC (MRSA ATCC BAA-44; [12])?
A: The MIC was 50 µM.

Q: And the “Kill at 4X MIC at 16 hours” value [2]?
A: The value was 5-logs.

Q: What about the “kill of A. baumannii ATCC BAA-1797” value [2] of the same compound?
A: Its value is ~5 orders of magnitude.

Q: And the “Synergize with PME?” value (A. baumannii)?
A: The value was “Yes, at 1 μM”.

Q: What about the MIC (A. baumannii ATCC 15151 [3]) of the same compound?
A: Its MIC is 3 µM.

Q: What about the MIC [4, 13] of the same compound?
A: Its MIC is 6 µM.

Q: What about the MIC [4, 14] of the same compound?
A: Its MIC is < 3 µM.

Q: What about the MIC ([4]; AR bank # 33, SAMN04014874, read-out: Compound 25 MIC) of the same compound?
A: The MIC was 6 µM.

Q: What about the MIC ([4]; AR bank # 35, SAMN04014876, read-out: Compound 25 MIC) of the same compound?
A: The MIC was 12.5 µM.

Q: What about the MIC ([4]; AR bank # 36, SAMN04014877, read-out: Compound 25 MIC) of the same compound?
A: Its MIC is 12.5 µM.

Q: What about the MIC ([4]; AR bank # 37, SAMN04014878, read-out: Compound 25 MIC) of the same compound?
A: Its MIC is 6 µM.

Q: And the MIC ([4]; AR bank # 45, SAMN04014886, read-out: Compound 25 MIC)?
A: Its MIC is 6 µM.

Q: And the MIC ([4]; AR bank # 52, SAMN04014893, read-out: Compound 25 MIC)?
A: Its MIC is 6 µM.

Q: What about the MIC ([4]; AR bank # 56, SAMN04014897, read-out: Compound 25 MIC) of the same compound?
A: Its MIC is 3 µM.

Q: What about the MIC ([4]; AR bank # 63, SAMN04014904, read-out: Compound 25 MIC) of the same compound?
A: The MIC was 3 µM.

Q: What about the MIC ([4]; AR bank # 70, SAMN04014911, read-out: Compound 25 MIC) of the same compound?
A: The MIC was 3 µM.

Q: And the MIC ([4]; AR bank # 78, SAMN04014919, read-out: Compound 25 MIC)?
A: Its MIC is 6 µM.

Q: And the MIC ([4]; AR bank # 83, SAMN04014924, read-out: Compound 25 MIC)?
A: Its MIC is 3 µM.

Q: And the MIC ([4]; AR bank # 88, SAMN04014929, read-out: Compound 25 MIC)?
A: Its MIC is 6 µM.

Q: What about the MIC ([4]; AR bank # 101, SAMN04014942, read-out: Compound 25 MIC) of the same compound?
A: Its MIC is 6 µM.

Q: What about the MIC ([4]; AR bank # 102, SAMN04014943, read-out: Compound 25 MIC) of the same compound?
A: Its MIC is 6 µM.

Q: What about the IC50 (HeLa cells [5]; [15]) of the same compound?
A: Its IC50 is 30.4 ± 3.3 µM.

Q: What about the IC50 (HeLa cells [5]; [16]) of the same compound?
A: Its IC50 is 30.4 ± 3.3 µM.

Q: What about the IC50 (HeLa cells [6]; [17]) of the same compound?
A: The IC50 was 101 µM.

Q: And the IC50 (HeLa cells [6]; [18])?
A: Its IC50 is 101 µM.

Q: And the cell membrane depolarization (A. baumannii ATCC 1515)?
A: The cell membrane depolarization was “depolarized the cell membrane”.

Q: And the “cell membrane depolarization over time” value (A. baumannii ATCC 1515; 10, 20, 30, and 50 minutes)?
A: The value was “depolarized the membrane the least”.

Q: And the MIC [7, 19]?
A: The MIC was 6 µM.

Q: What about the MIC [7, 20] of the same compound?
A: Its MIC is > 100 µM.

Q: And the MIC [7, 21]?
A: The MIC was 50 µM.

Q: What about the MIC [7, 22] of the same compound?
A: Its MIC is < 50 µM.

Q: What about the MIC [7, 23] of the same compound?
A: Its MIC is 6 µM.

Q: What about the MIC [7, 24] of the same compound?
A: The MIC was > 100 µM.

Q: And the MIC [7, 25]?
A: Its MIC is 6 µM.

Q: And the MIC [7, 26]?
A: Its MIC is 50 µM.

Q: And the ATP decrease (A. baumannii ATCC 15151 [8])?
A: The ATP decrease was “caused a decrease in ATP”.

Q: Which results are given for `Cl.Clc1ccc(N/N=C/c2c[nH]c3cccc(OCc4ccccc4)c23)cc1` [Compound 26, (E)-2-((4-(benzyloxy)-1H-indol-3-yl)methylene)-1-(4-chlorophenyl)hydrazin-1-ium]?
A: change of MIC from Day 0 to Day 30 (A. baumannii ATCC 15151 [1]; 30 days): 2 fold; development of resistance (A. baumannii ATCC 15151 [1]; 30 days): slight resistance; MIC (A. baumannii ATCC 15151 [1]; [9]): 6 µM; MIC (A. baumannii ATCC 15151 [1]; [10]): 12 µM; Evolution of resistance? (A. baumannii ATCC 15151 [1]): Yes; 2-fold; MIC (MRSA ATCC BAA-44; [11]): 25 µM; MIC (MRSA ATCC BAA-44; [12]): 50 µM; Kill at 4X MIC at 16 hours [2]: 5-logs; kill of A. baumannii ATCC BAA-1797 [2]: ~5 orders of magnitude; Synergize with PME? (A. baumannii): Yes, at 1 μM; MIC (A. baumannii ATCC 15151 [3]): 3 µM; MIC [4, 13]: 6 µM; MIC [4, 14]: 6 µM; IC50 (HeLa cells [5]; [15]): 37.3 ± 1.8 µM; IC50 (HeLa cells [5]; [16]): 37.3 ± 1.8 µM; IC50 (HeLa cells [6]; [17]): 58.2 µM; IC50 (HeLa cells [6]; [18]): 58.2 µM; cell membrane depolarization (A. baumannii ATCC 1515): depolarized the cell membrane; MIC [7, 19]: 6 µM; MIC [7, 20]: > 100 µM; MIC [7, 21]: 100 µM; MIC [7, 22]: 50 µM; MIC ([7]; ATCCBAA1797, A. baumannii ATCC BAA-1797, 10% FBS, read-out: MIC in the presence of 10% FBS): > 100 µM; MIC [7, 23]: 5 µM; MIC [7, 24]: > 100 µM; MIC [7, 25]: 6 µM; MIC [7, 26]: 100 µM; ATP decrease (A. baumannii ATCC 15151 [8]): caused a decrease in ATP

Reference: patent publication US12655101B2, “Small molecules with antibacterial activity” (NEW MEXICO TECH UNIVERSITY RESEARCH PARK CORPORATION, priority 2021, dated 2026)
